Data published in publication PMC8599359 (Molecular Neurobiology, 2021).

How the values were obtained:
Assay type in all cases: in vivo, mouse
C3H/HeJ mice pups = assay: Pregnancy and postnatal outcomes after in utero exposure
Excerpt: For all animal experiments, C3H/HeJ (10–12 weeks of age, male and female) were purchased from the Jackson Laboratory (Bar Harbor, ME), and were housed in microisolator cages containing autoclaved corncob bedding, and maintained on a 12‐h light‐dark cycle in climate‐controlled laboratory animal facilities approved by the University of Nebraska Medical Center Institutional Animal Care and Use Committee (IACUC). Mice were given free access to irradiated rodent feed (TD. 180,911, Envigo Teklad diet, Madison, WI) and sterile water. Animals were acclimated to the environment for approximately 7–14 days to determine that they were healthy based on observed behavior and weight gain. A female was placed with a male overnight for the purpose of timed matings. The following morning males were removed from the cages and positive vaginal plugs were identified. […] The time of conception was considered to be midnight on the evening of the mating. Treatment of plugged females was started at the morning of the day of plug detection (gestation day (GD) 0.5).
Mice pups at this stage of development (PND 28) are equivalent to humans of 2 years of age. […] Pregnant dams were randomly assigned to DTG or vehicle group. […] Survival rate of pups was 100% between PND 4 and 21 in both groups. Further body weights of pups were measured during preweaning duration. […] Furthermore, between age PND 28 and 34, live animals were evaluated for biochemical changes in the brain by magnetic resonance imaging (MRI) (Fig. 5D–F). All the tests were performed around 6 days post weaning to avoid confounding effect of stress related to separation from mother. Microstructural and metabolite measurements were conducted in live pups using bioimaging methods, diffusion tensor imaging (DTI), and magnetic resonance spectroscopy (^1H MRS), respectively (Fig. 5D–F). First, pups were scanned using DTI to determine microstructural changes in six different brain regions, hippocampus (HI), cortex (CT), striatum (ST), thalamus (TH), hypothalamus (HY), and cerebellum (CE). […] As FA represents anisotropic movement of water molecules along the axons, reduction in FA values indicated axonal and/or myelin damage in developing brain of adolescent pups in the DTG-treated group. […] This allowed evaluation of sex as a biological variant (Supplementary Fig. 4). […] Further, the same pups were scanned using ^1H MRS to measure N-acetylaspartate (NAA), total choline (tCho), and total creatine (tCre) in hippocampus (HI) only (Fig. 5F). NAA is a highly concentrated metabolite in the CNS and is a neuron-specific metabolite that acts as a non-invasive ^1H MRS marker for neuronal integrity, health, and cell number. […] Similar to DTI, sex differences were evaluated in the ^1H MRS study (Supplementary Fig. 5).

[1] = PK and BD of DTG during pregnancy; conditions: for Kp: C3H/HeJ, mouse, oral, 50 mg/kg
Excerpt: Drug administration was started at the day of plug detection (GD 0.5) and continued up to the day of birth of pups. Blood samples were collected from dams into heparinized tubes by cheek puncture (submandibular vein) using a 5-mm lancet (MEDIpoint, Inc., Mineola, NY) at GD 8.5 and 16.5 and postnatal days (PND) 4, 12, and 21 for plasma collection. […] Each sample (plasma or tissue) evaluated for DTG levels was randomly selected from distinct litters.
DTG was purchased from BOC Sciences (Shirley, NY). […]
PK and BD of DTG during pregnancy
DTG levels were quantitated in plasma, and tissue homogenates by ultraperformance liquid chromatography tandem mass spectrometry (UPLC-MS/MS). […]
ml of acetonitrile (ACN) and 10 µl of internal standard (IS) solution were added to 2 5 µl of plasma.
DTG-d3 at a final concentration of 50 ng/m l ser ved as the IS. Samples were vortexed and centrifuged at 17,000×g for 10 min at 4 °C. Supernatants were dried using a speed- vac and reconstituted in 100 µl 50% (v/v) ACN in water. The samples were vortexed and centrifuged at […]
analysis, 50– 200 mg of tissue (placenta, fetal brain) was homogenized in 9 volumes of 90% (v/v) methanol (MeOH) in water using a Qiagen TissueLyzer II (Valencia, CA). Subsequently, 280 µl o f MeOH, 10 µl of 80% (v/v) MeOH in water, and 10 µl IS were added to 100 µl of tissue homogenate.
Samples were then vortexed, left for 5 min on ice and centrifuged at 17,000 × g and 4 °C for 15 min. Twenty µl of supernatant was mixed with 80 µl of 50% (v/v) ACN in water. The samples were centrifuged at 17,000 × g at 4 °C f or 10 m in and the supernatant was used for analysis. Standard

C3H/HeJ mice pups, brain = assay: Diffusion tensor imaging of pups
Experimental: In vivo bioimaging (diffusion tensor imaging (DTI) and magnetic resonance spectroscopy (^1H MRS)) was performed using a 7 Tesla/16 cm Bruker PharmaScan or a 7 Tesla 21 cm Bruker Biospec (Karlsure, Germany) MRI/MRS system. At PND 28–34, DTI was performed on live mice pups to determine microstructural changes. Animals from both DTG- and vehicle-treated (control) groups were scanned. Pups (male and female) were randomly selected from each dam. As described in our previous work, a 4-segment echo planar imaging (EPI) readout with a balanced, rotationally invariant and alternating polarity icosahedral scheme (12 directions) and b value = 800 s/mm^2 were utilized. Diffusion Toolkit (http://trackvis.org/dtk/) was used to calculate DTI metrics, fractional anisotropy (FA). Region of interest (ROI) analysis was performed to measure DTI metrics on hippocampus (HI), cortex (CT), striatum (ST), thalamus (TH), hypothalamus (HY), and cerebellum (CE).

[2] = dams 50 mg/kg/day oral through entire gestation

## C[C@@H]1CCO[C@H]2Cn3cc(C(=O)NCc4ccc(F)cc4F)c(=O)c(O)c3C(=O)N12 [DTG, Dolutegravir]
C3H/HeJ mice pups; PND 12, in utero exposure
  Average body weight of pups: 5.1 ± 0.4 g
C3H/HeJ mice pups; PND 21, in utero exposure
  Average body weight of pups: 7.5 ± 0.4 g
C3H/HeJ mice pups; [2]
  No. of female pups delivered per litter: 1.2
  No. of male pups delivered per litter: 2.2
  No. of pups delivered per litter (average litter size): 3.5
  male to female ratio per litter: 2.0
C3H/HeJ mice pups; in utero exposure
  % pup survival (PND 4 to PND 21): 100%
  % pup survival (birth to PND 4): 92.8%
  structural malformations or variations in newborn pups: no structural malformations or variations
[1]; 50 mg/kg daily
  plasma drug levels in pregnant dams relative to maximal DTG concentration (Cmax) in human plasma at therapeutic doses: 10 ×
[1]; embryo brain / dam plasma, GD 16.5
  Kp: 0.024
[1]; pup brain / dam plasma, PND 4
  Kp: 0.038
[1]; GD 8.5, 50 mg/kg daily oral gavage from GD 0.5
  DTG concentration in plasma of dams: 38,628.63 ± 4855.53 ng/mL
[1]; GD 16.5
  ratio of embryo brain DTG levels to placenta DTG levels: 0.18
[1]; GD 16.5, 50 mg/kg daily oral
  DTG concentration in placental tissue: 3528.04 ± 316.56 ng/g
[1]; GD 16.5, 50 mg/kg daily oral gavage from GD 0.5
  DTG concentration in plasma of dams: 27,296.3 ± 2701.15 ng/mL
[1]; GD 16.5, 50 mg/kg daily oral to dam
  DTG concentration in embryonic brain tissue: 663.6 ± 75.13 ng/g
[1]; PND 4
  DTG concentration in brain tissue of pups: 48.1 ± 2.35 ng/g
[1]; PND 4, dosing stopped at birth of pups
  DTG concentration in plasma of dams: 1244.2 ± 623.20 ng/mL
[1]; PND 12, dosing stopped at birth of pups
  DTG concentration in plasma of dams: 48.95 ± 7.39 ng/mL
[1]; PND 21, dosing stopped at birth of pups
  DTG concentration in plasma of dams: 21.97 ± 2.42 ng/mL
[1]; PND 28, after cessation of dosing at birth
  DTG level in pup's brain predicted from dam plasma/embryo brain ratio (detection limit): < 0.1 ng/g
[1]; female, placenta / dam plasma, GD 16.5
  Kp: 0.12
C3H/HeJ mice pups, brain; PND 28-34, all six brain regions (HI, CT, ST, TH, HY, CE)
  fractional anisotropy (FA) values vs control: significantly lower
C3H/HeJ mice pups, brain; female pups, HI
  fractional anisotropy (FA) values vs control: trend of decrease
C3H/HeJ mice pups, brain; female pups, TH
  fractional anisotropy (FA) values vs control: significant reduction
C3H/HeJ mice pups, brain; male pups, HI, CT, ST and HY
  fractional anisotropy (FA) values vs control: significantly reduced
C3H/HeJ mice pups, brain; male pups, TH and CE
  fractional anisotropy (FA) values vs control: trend of reduced FA values
